Consider 89 molecules from a melting point compilation (Tetko et al.; mined from patent text by program, amines drawn as free bases though some values may be those of a salt).

On to `O=S(=O)(c1ccc(N2CCNCC2)cc1)n1ccc2cc(F)ccc21`, for which the melting point (usually the temperature of the solid-liquid transition) was in the range of 77 to 78 °C.
The figure for `NC(=O)c1ccc(N)nc1F` is 236 to 237 °C.
The value for `O=C(O)CCc1ccccc1Cc1ccc(Cl)cc1` was 107 to 109 °C; that for `COc1cc2c(O)nc(O)nc2c(OC)c1OC` was greater than 255 °C.
The value for `CC(=O)Oc1ccc2c(c1)Oc1ccccc1C2=C1C2CC3CC(C2)CC1C3` was 162 to 163 °C; that for `CCOC(=O)c1cc(=O)c2ccc(NCc3ccccc3)c([N+](=O)[O-])c2o1` was 168 °C; that for `COc1ccc(S(=O)(=O)N2CCc3cccc(-c4ccc(F)c(F)c4)c32)cc1` was 180 to 181 °C.
The molecule `COc1ccccc1-c1ccc(C[C@H](NC(=O)c2c(Cl)cccc2Cl)C(=O)O)cc1C(C)=O` had a melting point of 87 to 89 °C.
The figure for `COc1cccc(C2=Nc3ccc(N4CCOCC4)cc3C(=O)C2)c1OC` is 235 to 236 °C; for `COC(=O)C(C)Oc1ncn(-c2ccc(Cl)cc2Cl)n1` (centres undefined) it is 74 to 75 °C; for `CCc1c([N+](=O)[O-])c(C(N)=O)nn1C[C@@H]1CCCN1C(=O)OC(C)(C)C` it is 68 to 75 °C.
The figure for `COc1ccc(C(=O)c2c(C)n3c4c(cccc24)OCC3CN2CCOCC2)cc1` (centres undefined) is 182 to 189 °C; for `O=C1Cc2ccccc2C(c2c(F)cccc2Cl)N1` (centres undefined) it is 249 to 252 °C.
Take `Nc1cc(C(=O)O)cc(S(N)(=O)=O)c1Nc1ccc(Cl)cc1`: the melting point lay within 273 to 274 °C.
The figure for `C=C(Cl)Cc1c(Cl)nc(NC=O)nc1Cl` is 113 to 115 °C; for `COc1cc2c(Nc3ccc(Cl)cc3F)c(C#N)cnc2c(OC)c1OC` it is 166 to 168 °C.
Consider `CCCc1c[nH]c(CCC(=O)N(C)C)c1`, for which the melting point was in the range of 71 to 72 °C.
The value for `CC(C)NC(=S)N1CCc2c(ncn2C)C1` was 200 °C.
The figure for `COC=C(C(=O)OC)c1scnc1COc1ccccc1` is 133 °C; for `Cc1c(-c2ccncc2)oc2c1C(=O)OC(C)C2` (centres undefined) it is 157 to 160 °C.
The value for `O=C(O)[C@H](Cc1ccccc1)NS(=O)(=O)c1ccc(N2CCC(Cc3ccccc3)CC2)cc1` was 164 to 165 °C; that for `CCCSc1nc2cc(C)c(C)cc2[nH]1` was 122 to 123 °C; that for `Cc1cc2ncn(Cc3ccc(N)cc3)c2cc1C` was 238 to 239 °C.
Regarding `Cn1c(C(F)(F)F)cc(Cl)c(-c2ccc(Cl)c(NS(C)(=O)=O)c2)c1=O`, the melting point lay in the range of 161 to 163 °C.
`c1ccc(C2c3ccccc3-c3ncncc32)cc1` (centres undefined) showed a melting point of 148 to 150 °C.
The value for `CCCCN1C(=O)c2cnc(-c3ccccc3)nc2N(C(=O)CCl)c2ccccc21` was 139 to 140 °C; that for `Cc1nn(C)c2c1N(C(=O)CN1CCCC1)c1ccccc1NC2=O` was 114 to 116 °C.
The figure for `Cc1cc(OCCN2CCOCC2)nn1-c1ccc2ccc(O)cc2c1` is 103 to 107 °C.
The value for `COC(=O)C(Cc1ccc(OS(=O)(=O)C(F)(F)F)c(OS(=O)(=O)C(F)(F)F)c1)NC(=O)OC(C)(C)C` (centres undefined) was 80 to 82 °C; that for `CCN(CC)c1cccc2nc3n(c12)CC(=O)CCN3c1ccc(Cl)cc1Cl` was 169 to 170 °C; that for `CCOC(=O)C1=Cc2cc(C(O)C(F)(F)F)ccc2OC1C(F)(F)F` (centres undefined) was 114 to 120 °C.
As to `c1ccc2c(c1)sc1nncn12`, the melting point was in the range of 175 to 176 °C.
The figure for `CC(C)(C)OC(=O)N[C@@H](Cc1cc(F)cc(F)c1)[C@H]1CO1` is 99 °C; for `CCC(C)(CC)CC(=O)C(OC(=C1C(=O)N(C(N)=O)c2cc(Cl)c(F)cc21)c1cccs1)C(=O)O` (centres undefined) it is 124 to 125 °C; for `CC1(C)CC(=C(c2ccc(O)cc2)c2ccc(I)cc2)CC(C)(C)C1` it is 148 to 149 °C.
The figure for `CCCn1c(=O)c2[nH]c(/C=C/c3cc(OC)c(OCc4ccccc4)c(OC)c3)nc2n(CCC)c1=O` is 221 °C; for `CC(C)(C)c1ccc(S(=O)(=O)N2c3ccccc3C[C@H]2C(=O)NCc2ccc(NCC(=O)O)cc2)cc1` it is 110 °C; for `CC1=C(C#CC(C)C=CO)C(C)(C)CCC1=O` (centres undefined) it is 102 to 105 °C.
The value for `Cc1nsc2nc3ccccc3n12` was 192 to 193 °C; that for `CN1CCN(c2nn(-c3ccc(Cl)cc3Cl)c3ccccc23)CC1` was 150 to 152 °C; that for `CCCCOc1ccc(NC(=O)Nc2ccc(S(N)(=O)=O)cc2)cc1` was 236 to 239 °C.
The molecule `CCCCc1oc2ccc([N+](=O)[O-])cc2c1C(=O)c1ccc(OCCCO)cc1` returned a melting point of 76 to 80 °C.
`CS(=O)(=O)N1CN(C(=O)c2c(F)cccc2F)C(=O)N(c2ccc(Cl)cc2)C1`: the melting point is 178 °C.
The figure for `Cc1cc(Cl)nc(C=Cc2ccccc2)n1` is 71 to 73 °C.
The figure for `CC(C(=O)c1ccc(Br)cc1)n1ncn(-c2ccc(N3CCN(c4ccc(O[Si](C)(C)C(C)(C)C)cc4)CC3)cc2)c1=O` (centres undefined) is 178 °C; for `CCCCCCCC1CC(C(=O)Nc2c(C(C)C)cccc2C(C)C)C(=O)O1` (centres undefined) it is 95 to 98 °C; for `Cc1nc(N)nc(N[C@@H]2CCc3ccccc32)n1` it is 94 to 96 °C.
In turn, `O=C(O)c1ccc(OCCCCO)cc1` displayed a melting point of 124 °C.
The figure for `C[N+](C)([O-])c1ccc(/C=C/c2c(F)cccc2Cl)cc1` is 82 to 84 °C.
The figure for `COc1cc(-c2nc3ccc(OCCCN4CCCCC4)cc3n2Cc2ccccc2C(F)(F)F)cc(OC)c1OC` is 138 °C; for `CC(C)c1ccc(N(Cc2cnn(C)c2)C(=O)C2CCCc3c(O)cccc32)cc1` (centres undefined) it is 215 °C; for `Nc1nc(N)c(CCCCc2csc(OC(=O)N[C@@H](CCC(=O)O)C(=O)O)c2)c(O)n1` it is 235 to 236 °C.
The figure for `Clc1ccc(N2CCN(Cc3n[nH]c4c3CCc3ccccc3-4)CC2)nc1` is 207 to 208 °C; for `CC(C)NCC(O)COc1ncc(Br)nc1N(C)C` (centres undefined) it is 130 to 131 °C; for `COc1ccc(C(O)CCN2CC=C(c3ccc(Cl)cc3)CC2)cc1` (centres undefined) it is 116 to 118 °C.
Molecule `O=C(Oc1ccccc1OC(=O)c1ccccc1)c1ccccc1` gave a melting point of 75 to 77 °C.
The value for `CC(C)N1CCC(C(=O)OC2c3ccccc3C(=O)N2c2ccc3ccc(Cl)nc3n2)CC1` (centres undefined) was 184 °C.
The molecule `CCON=C(CC)C1=C(O)CC(c2ccc3c(c2)N(COC)C(=O)CO3)CC1=O` (centres undefined) returned a melting point of 101 to 103 °C.
The value for `Cc1c(-c2ccncc2)nc2n(c1=O)CCCN2` was 242 to 243 °C; that for `COc1nc(Cl)ccc1C(=O)O` was 210 to 215 °C; that for `Cc1ncc(CN2CCN(CCc3ccccc3)CC2)c(N)n1` was 162 to 165 °C.
The value for `Cc1c(NC(=O)OCc2ccccc2)cccc1C(C[N+](=O)[O-])c1c[nH]c2cc(OC3CCOC3)ccc12` (centres undefined) was 130 °C; that for `COc1ccc(C)cc1C(=O)NCCc1ccc(CC(=O)O)cc1` was 148 to 150 °C; that for `CC1(C)CC(=O)C2=C(C1)NC1=C(C(=O)CC(C)(C)C1)C2c1cccc(Oc2cc(Cl)cc(Cl)c2)c1` was 254 to 255 °C.
`CC(=O)Oc1coc(-c2cccc(N)c2)cc1=O` yielded a melting point of 127 to 129 °C.
The value for `COCCOc1cc2c(cc1C#Cc1ccccc1)NC(=O)CC(c1cccc(C#N)c1)=N2` was 174 to 176 °C; that for `C[C@H]1CN(c2c(F)cc3c(=O)c(C(=O)O)cn(CCF)c3c2Cl)C[C@H]1N` (relative stereo) was 234 to 236 °C; that for `Cc1ccccc1Nc1c([N+](=O)[O-])cnc2ccccc12` was 137 to 138 °C.
The value for `CN1Cc2c(Br)ncn2-c2ccccc2C1=O` was 196 to 198 °C.
The value for `COc1cccc(SC(CC(=O)c2ccccc2)c2cccc([N+](=O)[O-])c2)c1` (centres undefined) was 105 °C; that for `CC(c1ccccc1)c1n[nH]c2c1c(=O)n(-c1ccccc1)c1ncccc21` (centres undefined) was 267 to 268 °C.
Molecule `CCCCCCOC(=O)CS(=O)(=O)Nc1c(C(C)C)cccc1C(C)C` gave a melting point of 66 to 68 °C.
In turn, `COc1ccccc1NC(=O)Nc1nc(Oc2ccc3ccccc3c2)nc(N(CCC(=O)O)Cc2ccc(C)cc2)n1` showed a melting point of 202 to 205 °C.
The value for `Fc1ccc(C2CCC3(CC2)OCCO3)cc1` was 51 to 53 °C; that for `CCNC(=O)NC1=C(C(=O)OC)CCNC1=O` was 103 °C.
The figure for `CC(C)c1ccc(S(=O)(=O)n2c(COC(C)(C)C(=O)O)cc3cc(C(F)(F)F)ccc32)cc1` is 132 to 134 °C; for `CON=CC1=CCCN(C(=O)OCC(=O)N2CCCCC2)C1` it is 93 to 94 °C; for `Cc1nnc2c3cccc(Br)c3ccn12` it is 203 to 204 °C.
The figure for `CCCCCCCCCCCCCCCCCNC(=O)OCCSCCOC(=O)N(Cc1ccccn1)C(C)=O` is 62 to 63 °C.
Molecule `Cc1nn(C)c(Oc2ccccn2)c1C=O` showed a melting point of 56 to 57 °C.
For `CCOC(=O)C(C(=O)Nc1nccs1)C(=O)c1cccc(C(F)(F)F)c1NC(=O)C(Cl)C(C)(C)C` (centres undefined), the melting point was 180 °C.
The figure for `CC(=O)OCCn1nc(-c2cc(C(C)(C)C)c(O)c(C(C)(C)C)c2)c2c(C)cc(C)nc21` is 110 to 111 °C; for `CON=C1CN(c2c(F)cc3c(=O)c(C(=O)O)cn(C4CC4)c3c2F)CC12CN(C(=O)OC(C)(C)C)C2` it is 255 to 256 °C.
The figure for `CC(C)=C1C(=O)N(c2ccc(O)cc2)C(=O)/C1=C(\C)c1c(C)n(C)c2ccccc12` is 231 to 233 °C.
The figure for `CN(C)c1cccc2c1OC1(CC1)C2=O` is 68.3 °C.
Molecule `O=C(Nc1cc(Cl)c(O)c(Cl)c1)c1ccc(O)cc1O` came in with a melting point of 235 to 237 °C.
The figure for `C=CCn1c(=O)c2cc(C(=O)OCC)cn2c2ccccc21` is 177 to 178 °C; for `CCCCCCCCCCCc1cc2ccc(C(=O)O)cc2[nH]1` it is 156 to 158 °C.
As to `CCn1c(=O)c2c(nc(C=Cc3cc(OC)ccc3S(=O)(=O)O)n2C)n(CC)c1=O`, the melting point is 209 to 210 °C.
